Target: T1, hFXR (Homo sapiens, UniProt Q96RI1)
T1 construct: expressed in transfected cells; host or cells: CV-1 cells
T1 sequence (Q96RI1 1-486): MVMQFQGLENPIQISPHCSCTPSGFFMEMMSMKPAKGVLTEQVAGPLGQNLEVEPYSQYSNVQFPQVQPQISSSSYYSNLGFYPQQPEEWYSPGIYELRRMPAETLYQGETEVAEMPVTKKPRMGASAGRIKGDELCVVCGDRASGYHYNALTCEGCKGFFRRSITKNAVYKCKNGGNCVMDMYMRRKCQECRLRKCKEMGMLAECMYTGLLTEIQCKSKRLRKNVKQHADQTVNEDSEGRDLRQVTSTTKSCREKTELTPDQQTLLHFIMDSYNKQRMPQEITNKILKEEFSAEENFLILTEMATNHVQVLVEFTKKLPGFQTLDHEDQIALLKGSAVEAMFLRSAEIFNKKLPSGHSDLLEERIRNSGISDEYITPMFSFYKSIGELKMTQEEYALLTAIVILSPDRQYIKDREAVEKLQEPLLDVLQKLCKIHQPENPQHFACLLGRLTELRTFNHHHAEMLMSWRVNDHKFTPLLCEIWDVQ
T1 sequence (P19793 1-462 partner): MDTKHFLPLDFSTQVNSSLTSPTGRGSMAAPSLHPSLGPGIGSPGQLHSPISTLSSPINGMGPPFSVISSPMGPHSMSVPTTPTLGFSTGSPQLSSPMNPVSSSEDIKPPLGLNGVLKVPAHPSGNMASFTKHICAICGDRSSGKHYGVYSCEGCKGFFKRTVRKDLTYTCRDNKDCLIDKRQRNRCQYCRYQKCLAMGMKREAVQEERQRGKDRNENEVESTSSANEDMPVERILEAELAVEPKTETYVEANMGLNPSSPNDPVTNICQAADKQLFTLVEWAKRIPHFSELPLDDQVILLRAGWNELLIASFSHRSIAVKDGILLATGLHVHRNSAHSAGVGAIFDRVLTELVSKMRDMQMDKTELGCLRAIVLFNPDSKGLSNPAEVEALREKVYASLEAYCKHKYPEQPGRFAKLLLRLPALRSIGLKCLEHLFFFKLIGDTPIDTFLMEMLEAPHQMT
Assay: In Vitro FXR Assay (TK)
Type: cell-based
Settings: CV-1 cells transfected with hFXR, hRXR, TK-ECRE-luc and pCMX-YFP; incubated with compound for 18 hrs; luminescence
Description: Example B-1: In Vitro FXR Assay (TK)
CV-1 cells were seeded at a density of 2,000,000 cells in a T175 flask with DMEM+10% charcoal double-stripped FBS and incubated at 37° C. in 5% CO2 for 18 h (O/N).
After 18 h of incubation, the medium in the T175 flask was changed with fresh DMEM+10% charcoal super-stripped serum. In a polypropylene tube, 2500 μL OptiMEM (Life Technologies, Cat #31985-062) was combined with expression plasmids for hFXR, hRXR, TK-ECRE-luc and pCMX-YFP. The tube was then briefly vortexed and incubated at room temperature for 5 minutes. Transfection reagent (X-tremeGENE HP from Roche, Cat #06 366 236 001) was added to the OptiMEM/plasmid mixture vortexed and incubated at room temperature for 20 minutes. Following incubation, the transfection reagent/DNA mixture complex was added to cells in the T175 flask and the cells were incubated at 37° C. in 5% CO2 for 18 h (O/N).
Compounds were serially diluted in DMSO and added to transfected CV-1 cells. The cells were then incubated for 18 hrs. The next day cells were lysed and examined for luminescence.

EC50 [nM]	SMILES
50 to 1000	COc1c(C)cc(C23CCC(CN(c4cc(-c5cnn(C(C)C)c5)ncn4)C(=O)[C@H]4CC[C@H](CC(=O)O)CC4)(CC2)CC3)cc1C [Compound 4.08, trans-2-(4-((6-(1-Isopropyl-1H-pyrazol-4-yl)pyrimidin-4-yl)((4-(4-methoxy-3,5-dimethylphenyl)bicyclo[2.2.2]octan-1-yl)methyl)carbamoyl)cyclohexyl)acetic acid]
50 to 1000	COc1ccc(C23CCC(CN(c4cc(-n5cnc(C(C)C)n5)ccn4)C(=O)[C@H]4CC[C@H](CC(=O)O)CC4)(CC2)CC3)cc1C [Compound 4.26, trans-2-(4-((4-(3-Isopropyl-1H-1,2,4-triazol-1-yl)pyridin-2-yl)((4-(4-methoxy-3-methylphenyl)bicyclo[2.2.2]octan-1-yl)methyl)carbamoyl)cyclohexyl)acetic acid]
50 to 1000	COc1ccc([C@H]2CC[C@H](CN(c3cccc(-c4cnn(C(C)(C)C)c4)c3)C(=O)[C@H]3CC[C@H](C(=O)O)CC3)CC2)cc1C [Compound 2.02, trans-4-((3-(1-(tert-Butyl)-1H-pyrazol-4-yl)phenyl)((trans-4-(4-methoxy-3-methylphenyl)cyclohexyl)methyl)carbamoyl) cyclohexanecarboxylic acid]
50 to 1000	COc1ccc(C23CCC(CN(c4cc(-c5noc(C(C)C)n5)ccn4)C(=O)[C@H]4CC[C@H](CC(=O)O)CC4)(CC2)CC3)cc1C [Compound 4.21, trans-2-(4-((4-(5-lsopropyl-1,2,4-oxadiazol-3-yl)pyridin-2-yl)((4-(4-methoxy-3-methylphenyl)bicyclo[2.2.2]octan-1-yl)methyl)carbamoyl)cyclohexyl)acetic acid]
≤ 50	COc1ccc(C23CCC(CN(c4cc(-c5cnc(C(C)(C)C)s5)ccn4)C(=O)[C@H]4CC[C@H](CC(=O)O)CC4)(CC2)CC3)cc1C [Compound 4.17, trans-2-(4-((4-(2-(tert-Butyl)thiazol-5-yl)pyridin-2-yl)((4-(4-methoxy-3-methylphenyl)bicyclo[2.2.2]octan-1-yl)methyl)carbamoyl)cyclohexyl)acetic acid]
≤ 50	COc1ccc(C23CCC(CN(c4cc(-c5cnn(C(C)C)c5)ccn4)C(=O)[C@H]4CC[C@H](C(=O)O)CC4)(CC2)CC3)cc1C [Compound 4.02, trans-4-((4-(1-Isopropyl-1H-pyrazol-4-yl)pyridin-2-yl)((4-(4-methoxy-3-methylphenyl)bicyclo[2.2.2]octan-1-yl)methyl)carbamoyl)cyclohexanecarboxylic acid]
50 to 1000	COc1ccc(C23CCC(CN(c4cc(-c5cnn(C(C)C)c5)ncn4)C(=O)[C@H]4CC[C@H](CC(=O)O)CC4)(CC2)CC3)cc1C [Compound 3, trans-2-(4-((6-(1-Isopropyl-1H-pyrazol-4-yl)pyrimidin-4-yl)((4-(4-methoxy-3-methylphenyl)bicyclo[2.2.2]octan-1-yl)methyl)carbamoyl)cyclohexyl)acetic acid]
≤ 50	COc1ccc([C@H]2CC[C@H](CN(c3cccc(-c4cnn(C(C)(C)C)c4)c3)C(=O)[C@H]3CC[C@H](CC(=O)O)CC3)CC2)cc1C [Compound 2.04, 2-(trans-4-((3-(1-(tert-Butyl)-1H-pyrazol-4-yl)phenyl)((trans-4-(4-methoxy-3-methylphenyl)cyclohexyl)methyl)carbamoyl)cyclohexyl)acetic acid]
≤ 50	COc1ccc(C23CCC(CN(c4cccc(-n5cnc(C6CC6)n5)c4)C(=O)[C@H]4CC[C@H](CC(=O)O)CC4)(CC2)CC3)cc1C [Compound 4.28, trans-2-(4-((3-(3-Cyclopropyl-1H-1,2,4-triazol-1-yl)phenyl)((4-(4-methoxy-3-methylphenyl)bicyclo[2.2.2]octan-1-yl)methyl)carbamoyl)cyclohexyl)acetic acid]
≤ 50	COc1ccc(C23CCC(CN(c4cccc(-c5cnn(C(C)C)c5)c4)C(=O)[C@H]4CC[C@H](CC(=O)O)CC4)(CC2)CC3)cc1C [Compound 3.02, trans-2-(4-((3-(1-Isopropyl-1H-pyrazol-4-yl)phenyl)((4-(4-methoxy-3-methylphenyl)bicyclo[2.2.2]octan-1-yl)methyl)carbamoyl)cyclohexyl)acetic acid]
≤ 50	COc1ncc(C23CCC(CN(c4cccc(-c5cnn(C(C)(C)C)c5)c4)C(=O)[C@H]4CC[C@H](CC(=O)O)CC4)(CC2)CC3)cc1C [Compound 2.07, trans-2-(4-((3-(1-(tert-Butyl)-1H-pyrazol-4-yl)phenyl)((4-(6-methoxy-5-methylpyridin-3-yl)bicyclo[2.2.2]octan-1-yl)methyl)carbamoyl)cyclohexyl)acetic acid]
≤ 50	COc1ccc(C23CCC(CN(c4cc(-c5cnn(C(C)(C)C)c5)ccn4)C(=O)[C@H]4CC[C@H](CCC(=O)O)CC4)(CC2)CC3)cc1C [Compound 3.04, trans-3-(4-((4-(1-(tert-Butyl)-1H-pyrazol-4-yl)pyridin-2-yl)((4-(4-methoxy-3-methylphenyl)bicyclo[2.2.2]octan-1-yl)methyl)carbamoyl)cyclohexyl)propanoic acid]
≤ 50	COc1ccc(C23CCC(CN(c4cccc(-c5cnn(C(C)C)c5)c4F)C(=O)[C@H]4CC[C@H](CC(=O)O)CC4)(CC2)CC3)cc1C [Compound 2.08, trans-2-(4-((2-Fluoro-3-(1-isopropyl-1H-pyrazol-4-yl)phenyl)((4-(4-methoxy-3-methylphenyl)bicyclo[2.2.2]octan-1-yl)methyl)carbamoyl)cyclohexyl)acetic acid]
1000 to 10000	COc1ccc(C23CCC(CN(C(=O)[C@@H]4CCC[C@H](C(=O)O)C4)c4cc(-c5cnn(C(C)C)c5)ccn4)(CC2)CC3)cc1C (relative stereo) [Compound 3.05, cis-3-((4-(1-Isopropyl-1H-pyrazol-4-yl)pyridin-2-yl)((4-(4-methoxy-3-methylphenyl)bicyclo[2.2.2]octan-1-yl)methyl)carbamoyl)cyclohexanecarboxylic acid]
50 to 1000	COc1ccc(C23CCC(CN(c4cccc(-c5nnc(C6CC6)o5)c4)C(=O)[C@H]4CC[C@H](CC(=O)O)CC4)(CC2)CC3)cc1C [Compound 4.30, trans-2-(-4-((3-(5-Cyclopropyl-1,3,4-oxadiazol-2-yl)phenyl)((4-(4-methoxy-3-methylphenyl)bicyclo[2.2.2]octan-1-yl)methyl)carbamoyl)cyclohexyl)acetic acid]
50 to 1000	COc1ccc([C@H]2CC[C@H](CN(c3cc(-c4cnn(C(C)(C)C)c4)ccn3)C(=O)[C@H]3CC[C@H](CC(=O)O)CC3)CC2)cc1C [Compound 2.05, 2-(trans-4-((4-(1-(tert-Butyl)-1H-pyrazol-4-yl)pyridin-2-yl)((trans-4-(4-methoxy-3-methylphenyl)cyclohexyl)methyl)carbamoyl)cyclohexyl)acetic acid]
≤ 50	COc1ccc(C23CCC(CN(c4cc(-c5coc(C(C)C)n5)ccn4)C(=O)[C@H]4CC[C@H](CC(=O)O)CC4)(CC2)CC3)cc1C [Compound 4, trans-2-(4-((4-(2-Isopropyloxazol-4-yl)pyridin-2-yl)((4-(4-methoxy-3-methylphenyl)bicyclo[2.2.2]octan-1-yl)methyl)carbamoyl)cyclohexyl)acetic acid]

From patent US20220054469A1, “FARNESOID X RECEPTOR AGONISTS AND USES THEREOF” (Metacrine, Inc., priority 2018, published 2022)
